From PubChem BioAssay AID1259407 (Chemical Carcinogenesis Research Information System (CCRIS), 2018)
Calls of active or inactive are those of the source. The rule behind the calls is not given here.

Test system: CCRIS mutagenicity, Ames/micronucleus/aberration tests
Assay: CCRIS mutagenicity studies

Measured: mutagenic call

ClCc1ccccc1
active: End Point: IN VITRO CHROMOSOMAL ABERRATIONS, Test System: CHL CELLS, Metabolic Activation: RAT, LIVER, S-9, SODIUM PHENOBARBITAL AND 5,6-BENZOFLAVONE active; positive (structural changes) | End Point: IN VITRO MICRONUCLEUS, Test System: CHL/IU CELLS, Metabolic Activation: NONE active; positive | Test System: AMES SALMONELLA TYPHIMURIUM, Strain/Indicator: TA100, Method: STANDARD PLATE active; positive | Test System: AMES SALMONELLA TYPHIMURIUM, Strain/Indicator: TA7004, Metabolic Activation: NONE, Method: FLUCTUATION (MICROTITER) active; positive | Test System: AMES SALMONELLA TYPHIMURIUM, Strain/Indicator: TA7005, Metabolic Activation: NONE, Method: FLUCTUATION (MICROTITER) active; positive | Test System: Ames Salmonella typhimurium, Strain/Indicator: TA100, Metabolic Activation: None, Method: Vaporization-diffusion active; positive at all doses, effect of duration of exposure evident, with only 3-hr ex | Test System: Ames Salmonella typhimurium, Strain/Indicator: TA100, Metabolic Activation: Rat, liver, S-9, Aroclor 1254, Method: Direct plate-incorporation active; positive (weak but dose related response; in previous test, higher dose of 2,500 | Test System: Ames Salmonella typhimurium, Strain/Indicator: TA100, Metabolic Activation: Rat, liver, S-9, Aroclor 1254, Method: Preincubation active; positive, weak, dose-related increase in number of revertants noted. strain also | Test System: Ames Salmonella typhimurium, Strain/Indicator: TA100, Metabolic Activation: Rat, liver, S-9, Aroclor 1254, Method: Vaporization-diffusion active; positive at all doses, effect of duration of exposure evident, with only 3-hr ex | Test System: Ames Salmonella typhimurium, Strain/Sex: TA100, Metabolic Activation: None, Method: Direct plate-incorporation using closed container active; positive, moderate toxicity at highest dose. | Test System: Ames Salmonella typhimurium, Strain/Sex: TA100, Metabolic Activation: Rat, liver, S-9, Aroclor 1254, Method: Direct plate-incorporation using closed container active; positive, moderate toxicity at highest dose. | Test System: UDS HUMAN FIBROBLASTS, Strain/Indicator: THY INCORP (NON-S-PHASE), Metabolic Activation: NONE, Method: LIQUID SCINTILLATION COUNTING active; positive
inactive: Test System: AMES SALMONELLA TYPHIMURIUM, Strain/Indicator: TA97, Metabolic Activation: HAMSTER, LIVER, S-9, AROCLOR 1254 (10%), Method: PREINCUBATION inactive; negative | Test System: AMES SALMONELLA TYPHIMURIUM, Strain/Indicator: TA97, Metabolic Activation: HAMSTER, LIVER, S-9, AROCLOR 1254 (30%), Method: PREINCUBATION inactive; negative | Test System: AMES SALMONELLA TYPHIMURIUM, Strain/Indicator: TA97, Metabolic Activation: NONE, Method: PREINCUBATION inactive; negative | Test System: AMES SALMONELLA TYPHIMURIUM, Strain/Indicator: TA97, Metabolic Activation: RAT, LIVER, S-9, AROCLOR 1254 (10%), Method: PREINCUBATION inactive; negative | Test System: AMES SALMONELLA TYPHIMURIUM, Strain/Indicator: TA97, Metabolic Activation: RAT, LIVER, S-9, AROCLOR 1254 (30%), Method: PREINCUBATION inactive; negative | Test System: AMES SALMONELLA TYPHIMURIUM, Strain/Indicator: TA98, Metabolic Activation: HAMSTER, LIVER, S-9, AROCLOR 1254 (10%), Method: PREINCUBATION inactive; negative | Test System: AMES SALMONELLA TYPHIMURIUM, Strain/Indicator: TA98, Metabolic Activation: HAMSTER, LIVER, S-9, AROCLOR 1254 (30%), Method: PREINCUBATION inactive; negative | Test System: AMES SALMONELLA TYPHIMURIUM, Strain/Indicator: TA98, Metabolic Activation: NONE, Method: FLUCTUATION (MICROTITER) inactive; negative | Test System: AMES SALMONELLA TYPHIMURIUM, Strain/Indicator: TA98, Metabolic Activation: NONE, Method: PREINCUBATION inactive; negative | Test System: AMES SALMONELLA TYPHIMURIUM, Strain/Indicator: TA98, Metabolic Activation: RAT LIVER S-9, AROCLOR 1254, Method: FLUCTUATION (MICROTITER) inactive; negative | Test System: AMES SALMONELLA TYPHIMURIUM, Strain/Indicator: TA98, Metabolic Activation: RAT LIVER S-9, PHENOBARBITAL AND BETA-NAPHTHOFLAVONE, Method: PREINCUBATION inactive; negative | Test System: AMES SALMONELLA TYPHIMURIUM, Strain/Indicator: TA98, Metabolic Activation: RAT, LIVER, S-9, AROCLOR 1254 (10%), Method: PREINCUBATION inactive; negative | Test System: AMES SALMONELLA TYPHIMURIUM, Strain/Indicator: TA98, Metabolic Activation: RAT, LIVER, S-9, AROCLOR 1254 (30%), Method: PREINCUBATION inactive; negative | Test System: AMES SALMONELLA TYPHIMURIUM, Strain/Indicator: TA100, Metabolic Activation: HAMSTER, LIVER, S-9, AROCLOR 1254 (10 OR 30%), Method: PREINCUBATION inactive; negative | Test System: AMES SALMONELLA TYPHIMURIUM, Strain/Indicator: TA100, Metabolic Activation: NONE, Method: STANDARD PLATE inactive; negative | Test System: AMES SALMONELLA TYPHIMURIUM, Strain/Indicator: TA100, Metabolic Activation: RAT, LIVER, S-9, AROCLOR 1254 (10%), Method: PREINCUBATION inactive; negative | Test System: AMES SALMONELLA TYPHIMURIUM, Strain/Indicator: TA100, Metabolic Activation: RAT, LIVER, S-9, AROCLOR 1254 (30%), Method: PREINCUBATION inactive; negative | Test System: AMES SALMONELLA TYPHIMURIUM, Strain/Indicator: TA1535, Metabolic Activation: HAMSTER, LIVER, S-9, AROCLOR 1254 (10%), Method: PREINCUBATION inactive; negative | Test System: AMES SALMONELLA TYPHIMURIUM, Strain/Indicator: TA1535, Metabolic Activation: HAMSTER, LIVER, S-9, AROCLOR 1254 (30%), Method: PREINCUBATION inactive; negative | Test System: AMES SALMONELLA TYPHIMURIUM, Strain/Indicator: TA1535, Metabolic Activation: NONE, Method: PREINCUBATION inactive; negative | Test System: AMES SALMONELLA TYPHIMURIUM, Strain/Indicator: TA1535, Metabolic Activation: RAT LIVER S-9, PHENOBARBITAL AND BETA-NAPHTHOFLAVONE, Method: PREINCUBATION inactive; negative | Test System: AMES SALMONELLA TYPHIMURIUM, Strain/Indicator: TA1535, Metabolic Activation: RAT, LIVER, S-9, AROCLOR 1254 (10%), Method: PREINCUBATION inactive; negative | Test System: AMES SALMONELLA TYPHIMURIUM, Strain/Indicator: TA1535, Metabolic Activation: RAT, LIVER, S-9, AROCLOR 1254 (30%), Method: PREINCUBATION inactive; negative | Test System: AMES SALMONELLA TYPHIMURIUM, Strain/Indicator: TA1537, Metabolic Activation: HAMSTER, LIVER, S-9, AROCLOR 1254 (10%), Method: PREINCUBATION inactive; negative | Test System: AMES SALMONELLA TYPHIMURIUM, Strain/Indicator: TA1537, Metabolic Activation: NONE, Method: FLUCTUATION (MICROTITER) inactive; negative | Test System: AMES SALMONELLA TYPHIMURIUM, Strain/Indicator: TA1537, Metabolic Activation: NONE, Method: PREINCUBATION inactive; negative | Test System: AMES SALMONELLA TYPHIMURIUM, Strain/Indicator: TA1537, Metabolic Activation: RAT LIVER S-9, AROCLOR 1254, Method: FLUCTUATION (MICROTITER) inactive; negative | Test System: AMES SALMONELLA TYPHIMURIUM, Strain/Indicator: TA1537, Metabolic Activation: RAT LIVER S-9, PHENOBARBITAL AND BETA-NAPHTHOFLAVONE, Method: PREINCUBATION inactive; negative | Test System: AMES SALMONELLA TYPHIMURIUM, Strain/Indicator: TA1537, Metabolic Activation: RAT, LIVER, S-9, AROCLOR 1254 (10%), Method: PREINCUBATION inactive; negative | Test System: AMES SALMONELLA TYPHIMURIUM, Strain/Indicator: TA7001, Metabolic Activation: NONE, Method: FLUCTUATION (MICROTITER) inactive; negative | Test System: AMES SALMONELLA TYPHIMURIUM, Strain/Indicator: TA7001, Metabolic Activation: RAT LIVER S-9, AROCLOR 1254, Method: FLUCTUATION (MICROTITER) inactive; negative | Test System: AMES SALMONELLA TYPHIMURIUM, Strain/Indicator: TA7002, Metabolic Activation: NONE, Method: FLUCTUATION (MICROTITER) inactive; negative | Test System: AMES SALMONELLA TYPHIMURIUM, Strain/Indicator: TA7002, Metabolic Activation: RAT LIVER S-9, AROCLOR 1254, Method: FLUCTUATION (MICROTITER) inactive; negative | Test System: AMES SALMONELLA TYPHIMURIUM, Strain/Indicator: TA7003, Metabolic Activation: NONE, Method: FLUCTUATION (MICROTITER) inactive; negative | Test System: AMES SALMONELLA TYPHIMURIUM, Strain/Indicator: TA7003, Metabolic Activation: RAT LIVER S-9, AROCLOR 1254, Method: FLUCTUATION (MICROTITER) inactive; negative | Test System: AMES SALMONELLA TYPHIMURIUM, Strain/Indicator: TA7004, Metabolic Activation: RAT LIVER S-9, AROCLOR 1254, Method: FLUCTUATION (MICROTITER) inactive; negative | Test System: AMES SALMONELLA TYPHIMURIUM, Strain/Indicator: TA7005, Metabolic Activation: RAT LIVER S-9, AROCLOR 1254, Method: FLUCTUATION (MICROTITER) inactive; negative | Test System: AMES SALMONELLA TYPHIMURIUM, Strain/Indicator: TA7006, Metabolic Activation: NONE, Method: FLUCTUATION (MICROTITER) inactive; negative | Test System: AMES SALMONELLA TYPHIMURIUM, Strain/Indicator: TA7006, Metabolic Activation: RAT LIVER S-9, AROCLOR 1254, Method: FLUCTUATION (MICROTITER) inactive; negative | Test System: Ames Salmonella typhimurium, Strain/Indicator: TA98, Metabolic Activation: None, Method: Direct plate-incorporation inactive; negative (no data given in original article) | Test System: Ames Salmonella typhimurium, Strain/Indicator: TA98, Metabolic Activation: None, Method: Direct plate-incorporation using closed container inactive; negative, moderate toxicity at highest dose. | Test System: Ames Salmonella typhimurium, Strain/Indicator: TA98, Metabolic Activation: None, Method: Vaporization-diffusion inactive; negative | Test System: Ames Salmonella typhimurium, Strain/Indicator: TA98, Metabolic Activation: Rat, liver, S-9, Aroclor 1254, Method: Direct plate-incorporation inactive; negative (no data given in original article) | Test System: Ames Salmonella typhimurium, Strain/Indicator: TA98, Metabolic Activation: Rat, liver, S-9, Aroclor 1254, Method: Direct plate-incorporation using closed container inactive; negative, moderate toxicity at highest dose. | Test System: Ames Salmonella typhimurium, Strain/Indicator: TA98, Metabolic Activation: Rat, liver, S-9, Aroclor 1254, Method: Preincubation inactive; negative, strain also tested without s-9, but moderate to high toxicity was obse | Test System: Ames Salmonella typhimurium, Strain/Indicator: TA98, Metabolic Activation: Rat, liver, S-9, Aroclor 1254, Method: Vaporization-diffusion inactive; negative | Test System: Ames Salmonella typhimurium, Strain/Indicator: TA100, Metabolic Activation: None, Method: Direct plate-incorporation inactive; negative
